According to article PMC8615155 (Antioxidants, 2021):
Where two headings read alike, the source gives them in different places.

Key:
HCT116 cells = experiment: MTT cell viability HCT116; type: cell-based, Human; settings: for IC50: read-out: IC50 values on cancer cell lines
Protocol: (§1) Human HeLa, A549, HepG2, SH-SY5Y, MCF7 and AGS cells were cultured in DMEM containing 10% FBS, respectively. HCT116 cells were cultured in McCoy’s 5A medium (Procell, Wuhan, China) containing 10% FBS. The cells were cultured in medium containing 100 IU/mL penicillin, 100 µg/mL streptomycin (1% antibiotics) and 25 nM selenite at 37 °C in a humidified incubator with 5% CO2 (Thermo Fisher Scientific, Waltham, MA, USA).
(§2) MTT assay was used to detect cell viability. In brief, cells were seeded in 96-well plates with 5000 cells per well and allowed to stick overnight. […] After treatment, the cell medium was carefully removed from the cultured cells and added with 100 µL fresh FBS-free medium containing 0.5 mg/mL MTT. The medium was incubated in an incubator for 4 h. Then, the medium was removed, and the formazan crystals formed were dissolved in 100 µL DMSO. The absorbance was measured at 570 nm, and 630 nm was set as the reference. The experiments were repeated four times.

AGS cells = experiment: MTT cell viability AGS; type: cell-based, Human
Protocol: as §1, §2

TrxR1 [1] = test system: TrxR1; set-up: method as in PMID 21262347; settings: cited from earlier work
TrxR1 [2] = biological target: T1, TrxR1 (Rattus norvegicus, UniProt O89049); experiment: NADPH oxidase activity of TrxR1 (juglone reduction); type: biochemical; settings: 500 µM, 30 min in dark, juglone as substrate
T1 sequence (O89049 1-499): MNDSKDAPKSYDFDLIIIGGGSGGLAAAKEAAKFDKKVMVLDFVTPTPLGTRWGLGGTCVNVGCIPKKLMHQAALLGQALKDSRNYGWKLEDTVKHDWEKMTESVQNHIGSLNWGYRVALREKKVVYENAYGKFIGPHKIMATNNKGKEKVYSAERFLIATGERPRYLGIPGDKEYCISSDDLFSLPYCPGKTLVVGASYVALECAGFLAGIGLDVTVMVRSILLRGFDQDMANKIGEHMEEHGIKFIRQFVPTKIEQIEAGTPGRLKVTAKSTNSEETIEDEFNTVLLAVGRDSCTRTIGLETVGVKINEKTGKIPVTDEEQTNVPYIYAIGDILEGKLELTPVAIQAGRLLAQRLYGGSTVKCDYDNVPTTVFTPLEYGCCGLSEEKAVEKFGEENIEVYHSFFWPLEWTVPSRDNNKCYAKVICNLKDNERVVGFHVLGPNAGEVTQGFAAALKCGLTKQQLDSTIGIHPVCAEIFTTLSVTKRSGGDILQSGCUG
Protocol: NADPH oxidase activity of TrxR1 was measured by juglone reduction method. The final reaction mixture consisted of 30 nM TrxR1, 30 µM juglone (in DMSO) and 200 µM NADPH.

wild type TrxR1 [3] = biological target: T2, wild type TrxR1 (Rattus norvegicus, UniProt O89049)
T2 sequence (O89049 1-499): T1 sequence (O89049 1-499)
Protocol: (§3) All food colorants were dissolved in DMSO to prepare a stock solution. […] 5,5′-dithiobis-2-nitrobenzoic acid (DTNB), 3-(4,5)-dimethylthiahiazo (-z-y1)-3,5-di-phenytetrazoliumromide (MTT) and ROS probe DCFH-DA were purchased from Sigma-Aldrich (St Louis, MI, USA). A 50 mM Tris-HCl containing 2 mM EDTA (pH 7.5) was used in all protein-based experiments, if not stated otherwise.
(§4) The enzymatic activities of TrxR1 and its various mutants were determined in parallel with DTNB and 9,10-panathrenequinone (9,10 PQ) as substrates [17]. In DTNB reduction assay, the working reaction mixtures contained 10 nM TrxR1, 2.5 mM DTNB and 300 µM NADPH in 50 mM Tris-HCl and 2 mM EDTA, pH 7.5. […] In the 9,10 PQ reduction assay, the working reaction mixtures contained 30 nM TrxR1, 30 µM 9,10 PQ and 200 µM NADPH, followed by NADPH oxidation at 340 nm for 20 min at room temperature, according to the linear region of the decrease curves (assuming ƐNADPH, 340 nm = 6200 M^−1 cm^−1).

wild type TrxR1 [4] = biological target: T2, wild type TrxR1; experiment: TrxR1 DTNB reduction assay
Protocol: as §3, §4

[5] = biological target: T3, cellular TrxR in HeLa cells (Homo sapiens, UniProt Q16881); experiment: Cellular TrxR activity, end-point Trx-coupled insulin assay; type: cell-based; settings: HeLa cells vs untreated controls
T3 construct: endogenous in cells; host or cells: HeLa
T3 sequence (Q16881 1-499 isoform Q16881-5): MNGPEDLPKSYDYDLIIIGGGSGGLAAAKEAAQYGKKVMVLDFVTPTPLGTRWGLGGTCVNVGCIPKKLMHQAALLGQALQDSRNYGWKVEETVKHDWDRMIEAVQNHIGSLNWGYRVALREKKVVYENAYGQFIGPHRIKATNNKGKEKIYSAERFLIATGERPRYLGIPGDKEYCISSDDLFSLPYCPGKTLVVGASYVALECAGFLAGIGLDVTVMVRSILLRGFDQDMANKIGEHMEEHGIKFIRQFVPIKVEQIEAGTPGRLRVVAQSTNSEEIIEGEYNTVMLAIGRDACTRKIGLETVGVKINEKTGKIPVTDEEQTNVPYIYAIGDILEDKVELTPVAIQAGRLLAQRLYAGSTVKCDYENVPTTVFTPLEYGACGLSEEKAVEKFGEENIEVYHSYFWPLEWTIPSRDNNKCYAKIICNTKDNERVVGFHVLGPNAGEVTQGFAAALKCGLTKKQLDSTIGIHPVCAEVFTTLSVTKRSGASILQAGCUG
Protocol: The cells were then collected and washed twice with ice-cold PBS. The total cell proteins were extracted with the RIPA buffer on ice for 30 min. The TrxR activities in the cell lysates were measured by the end-point Trx-coupled insulin assay and the protein concentration was determined by BCA protein assay kit (Sangon, Shanghai, China), using bovine serum albumin (BSA) as protein standard.

HeLa cells [6] = experiment: ROS generation with DCFH-DA; type: cell-based, Human; settings: 12 h, up to 50 µM
Protocol: After removing the medium, 10 µM DCFH-DA was added and incubated at 37 °C in darkness for 30 min. The cells were then observed and photographed using a Leica inverted fluorescence microscopy (Leica, Germany).

A549 cells = experiment: MTT cell viability A549; type: cell-based, Human; settings: read-out: IC50 values on cancer cell lines
Protocol: as §1, §2

HeLa cells [7] = experiment: MTT cell viability HeLa; type: cell-based, Human; settings: read-out: IC50 values on cancer cell lines
Protocol: as §1, §2

HepG2 cells = experiment: MTT cell viability HepG2; type: cell-based, Human; settings: read-out: IC50 values on cancer cell lines
Protocol: as §1, §2

MCF7 cells = experiment: MTT cell viability MCF7; type: cell-based, Human; settings: read-out: IC50 values on cancer cell lines
Protocol: as §1, §2

SH-SY5Y cells = experiment: MTT cell viability SH-SY5Y; type: cell-based, Human; settings: 48 h, read-out: IC50 values on cancer cell lines
Protocol: as §1, §2

CC(=O)N[C@@H](CS)C(=O)O [NAC, N-acetyl-L-cysteine, reference compound]
Effect of co-treatment on chlorophyllin cytotoxicity (HCT116 cells; HCT116, 100 µM or 500 µM NAC, 24 h co-treatment): protect cell from chlorophyllin
Effect of co-treatment on chlorophyllin cytotoxicity (AGS cells; 100 µM or 500 µM NAC, 24 h co-treatment): protect cell from chlorophyllin

C=CC1=C(C)c2cc3[nH]c(cc4nc(cc5[nH]c(cc1n2)c(C)c5CCC(=O)O)C(CCC(=O)O)=C4C)c(C)c3C=C [PpIX]
Kinact in TrxR1 mediated Trx-coupled insulin reduction (TrxR1 [1]): 5 M⁻¹ s⁻¹
Ki (TrxR1 [1]; read-out: apparent Ki on TrxR1's Trx reduction): 2.7 µM

CC(=O)OC[C@H]1O[C@@H]([S-])[C@H](OC(C)=O)[C@@H](OC(C)=O)[C@@H]1OC(C)=O.CCP(CC)CC.[Au+] [auranofin, reference compound]
Effect of pre-treatment on sensitivity of HCT116 cells to chlorophyllin (HCT116 cells; auranofin 2.5 h pre-treatment, then chlorophyllin): increasing the sensitivity

CC1=C[C@H](O)CC(C)(C)[C@H]1/C=C/C(C)=C/C=C/C(C)=C/C=C/C=C(C)/C=C/C=C(C)/C=C/C1=C(C)C[C@@H](O)CC1(C)C [lutein]
Inhibition of NADPH oxidation activity of TrxR1 (TrxR1 [2]): no inhibition
Time dependence of TrxR1 inhibition (wild type TrxR1 [3]): time-dependent manner
IC50 (wild type TrxR1 [4]): 306 µM

Sodium copper chlorophyll [chlorophyllin]
Inhibition of cellular TrxR1 activity [5]: remarkable inhibition
Fluorescent signals of ROS probe DCFH-DA (HeLa cells [6]): much higher
IC50 (A549 cells; A549, 24 h): 40.7 ± 3.9 µM
IC50 (A549 cells; A549, 48 h): 10.3 ± 1.4 µM
IC50 (HeLa cells [7]; 24 h): 47.9 ± 13.5 µM
IC50 (HeLa cells [7]; 48 h): 10.4 ± 4.3 µM
IC50 (HepG2 cells; HepG2, 24 h): 36.8 ± 11.2 µM
IC50 (HepG2 cells; HepG2, 48 h): 10.2 ± 3 µM
IC50 (MCF7 cells; MCF7, 24 h): 30.1 ± 7.1 µM
IC50 (MCF7 cells; MCF7, 48 h): 6.9 ± 1.1 µM
IC50 (HCT116 cells; HCT116, 24 h): 43.5 ± 2.6 µM
IC50 (HCT116 cells; HCT116, 48 h): 20.2 ± 0.8 µM
IC50 (AGS cells; 48 h, read-out: IC50 values on cancer cell lines): 49.6 ± 24.7 µM
IC50 (SH-SY5Y cells): 31.7 ± 6.7 µM

hemin
Kinact in TrxR1 mediated Trx-coupled insulin reduction (TrxR1 [1]): 4.33 M⁻¹ s⁻¹
